In US6392049B1, “Process for preparing 2,4-dihydroxypyridine and 2,4-dihydroxy-3-nitropyridine” (Aventis Pharmaceuticals Inc., priority 1996, dated 2002) one finds IC50 data, which are given here for 26 compounds.

One experiment relates to swine coronary arteries. In words: In vitro vasorelaxation in isolated swine coronary arteries. The class given is cell-based. The note with it: for IC50: Sus scrofa, read-out: Vasorelaxation in Swine Coronary Artery/IC50 (μM); for pIC50: 50% reduction in tension of rings contracted with 3 μM PGF2a, read-out: Vasorelaxation in Swine Coronary Artery/IC50. The protocol:
Swine coronary arteries are obtained from a local slaughter house, dissected carefully and cleaned of fat, blood and adhering tissue. Rings approximately 2-3 mm wide are cut and transferred to water-jacketed tissue baths (10 mL) filled with warm (37° C.), oxygenated (O2/CO2:95%/5%) Krebs-Henseleit buffer and mounted on L-shaped hooks between stainless steel rods and a force transducer. […] PGF2a, before being exposed to 3 μM PGF2a.

A further experiment concerns the target T1, A1 receptor (Rattus norvegicus, UniProt P25099).
T1 construct: using a membrane preparation of whole rat brain; from tissue; host or cells: whole rat brain membranes
T1 sequence (P25099 1-326): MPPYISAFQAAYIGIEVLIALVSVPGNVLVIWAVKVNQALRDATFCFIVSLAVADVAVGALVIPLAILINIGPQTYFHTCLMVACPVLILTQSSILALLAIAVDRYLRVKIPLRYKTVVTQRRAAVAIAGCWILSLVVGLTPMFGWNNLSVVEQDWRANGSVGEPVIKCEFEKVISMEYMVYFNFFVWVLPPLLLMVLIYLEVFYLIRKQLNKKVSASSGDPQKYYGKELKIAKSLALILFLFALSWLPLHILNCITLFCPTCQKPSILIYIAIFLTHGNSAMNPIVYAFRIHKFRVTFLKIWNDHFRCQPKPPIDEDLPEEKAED
Put plainly: A1 adenosine receptor binding, displacement of 3H-CHA, whole rat brain membranes. To be noted: 3H-CHA displacement, 25° C., 60 minutes. The protocol:
Non-specific binding is assessed in the presence of 1 mM theophylline.
(§1) The assays are run in glass test tubes in duplicate at 25° C. Once the membranes are added, the tubes are vortexed and incubated at 25° C. for 60 minutes (A1 assay) or 90 minutes (A2 assay) on a rotary shaker. The assay tubes are vortexed halfway through the incubation and again near the end. The assays are terminated by rapid filtration through 2.4 cm GF/B filters using a Brandel Cell Harvestor. The test tubes are washed three times with cold 50 mM tris-HCl (pH 7.7 or 7.4), with filtration being completed within 15 seconds. The damp filter circles are placed in glass scintillation vials filled with 10 ml of Aquasol II (New England Nuclear). The vials are allowed to shake overnight on a rotary shaker and are placed into a liquid scintillation analyzer for two minute counts. IC50 values for receptor binding, i.e. the concentration at which a compound of Formula I displaced the radiolabeled standard, are obtained using a curve-fitting computer program (RS/1, Bolt, Beranek and Newman, Boston, Mass.).
(In general: In a radioligand displacement assay an active substance lowers the binding of a labelled ligand.)

In the next experiment the target is T2, A2 receptor (Rattus norvegicus, UniProt P30543).
T2 construct: using membranes from rat brain striatum; from tissue; host or cells: rat brain striatum membranes
T2 sequence (P30543 whole entry): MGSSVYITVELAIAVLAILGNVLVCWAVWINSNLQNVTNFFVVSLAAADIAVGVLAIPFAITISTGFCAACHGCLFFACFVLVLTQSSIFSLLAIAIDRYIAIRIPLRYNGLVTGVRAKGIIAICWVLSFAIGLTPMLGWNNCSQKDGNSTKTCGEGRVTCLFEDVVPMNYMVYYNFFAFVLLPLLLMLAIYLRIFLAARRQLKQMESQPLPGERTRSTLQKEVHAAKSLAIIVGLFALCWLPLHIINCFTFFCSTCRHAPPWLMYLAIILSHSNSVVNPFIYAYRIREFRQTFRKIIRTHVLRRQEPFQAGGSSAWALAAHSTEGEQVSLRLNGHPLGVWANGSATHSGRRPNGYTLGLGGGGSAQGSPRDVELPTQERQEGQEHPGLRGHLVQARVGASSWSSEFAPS
In words: A2 adenosine receptor binding, displacement of 3H-CGS 21680, rat brain striatum membranes. To be noted: 3H-CGS 21680 displacement, rat brain striatum membranes, 25° C., 90 minutes; read-out: Adenosine Receptor Binding Activity/IC50 (nM) A2. The protocol:
Non-specific binding is assessed in the presence of 20 μm 2-chloroadenosine.
as §1

pIC50: −log10 of the molar value. Like-named read-outs stand apart in the source and are kept apart here.

`CCNC(=O)[C@H]1C[C@@H](n2cnc3c(N[C@H](C)Cc4ccc(Cl)s4)ncnc32)[C@H](OC(=O)OC)[C@@H]1OC(=O)OC` [Example 42, (2S)-2a,3a-bis-methoxycarbonyloxy-4β-[N6-[2-(5-chloro-2-thienyl)-(1R)-1-methylethyl]amino-9-adenyl]cyclopentane-1β-N-ethylcarboxamide]: the IC50 in the experiment with swine coronary arteries is 2.44 µM; on A1 receptor it was greater than 1000 nM; at A2 receptor, greater than 10000 nM.
With `CCNC(=O)C1CC(n2cnc3c(NC(CC)Cc4sccc4Cl)ccnc32)C(O)C1O` (single isomer, unassigned) [Example 39, [1S-[1a,2b,3b,4a(S*)]]4-[7-[[2-(3-chloro-2-thienyl)-1-ethylethyl]amino]-3H-imidazo[4,5-b]pyridin-3-yl]-N-ethyl-2,3-dihydroxycyclopentane-carboxamide], the IC50 on A1 receptor amounted to 3.98 nM; on A2 receptor, 46.8 nM.
For the compound `CCNC(=O)[C@H]1O[C@@H](n2cnc3c(NC4CC=CCC4c4cccs4)ncnc32)[C@H](O)[C@@H]1O` (single isomer, unassigned) [Example 22, N^6-[trans-2-(thiophen-2-yl)-cyclohex-4-en-1-yl]adenosine-5-N-ethyl carboxamide], the values for the IC50 in the experiment with swine coronary arteries, on A1 receptor and on A2 receptor were 0.1 µM, 2.69 nM and 29.5 nM, respectively.
Take `CCC(Cc1sccc1Cl)Nc1ncnc2c1ncn2[C@@H]1O[C@H](CO)[C@@H](O)[C@H]1O` (stereo partly shown) [Example 31, N^6-[1-ethyl-2-(3-chlorothien-2-yl)ethyl]adenosine]: the IC50 on A1 receptor was found to be 0.03 nM; at A2 receptor, 8.9 nM.
Regarding “(2S)-2a,3a-dihydroxy-4β-[N6-[2-(5-chloro-2-thienyl)-(1R)-1-methylethyl]amino-9-adenyl]cyclopentane-1β-N-ethylcarboxamide-2,3-carbonate [Example 44]”, the pIC50 with swine coronary arteries is 6.50. Further, the IC50 stood at 55 nM on A1 receptor and 331 nM on A2 receptor.
Take `CCNC(=O)C1CC(n2cnc3c(N[C@H](C)Cc4ccc(Cl)s4)ncnc32)C2OC(C)(C)OC12` (single isomer, unassigned; (-)) [6(1)]: the pIC50 with swine coronary arteries is 4.72. In addition, the IC50 on A1 receptor and on A2 receptor was greater than 1000 nM each time.
In the case of `CCNC(=O)[C@H]1C[C@@H](n2cnc3c(N[C@H](C)Cc4ccc(Cl)s4)[n+]([O-])cnc32)[C@H](O)[C@@H]1O` [Example 35, (2S)-2a,3a-dihydroxy-4β-[N6-[2-(5-chloro-2-thienyl)-(1R)-1-methylethyl]amino-9-adenyl]cyclopentane-1β-N-ethylcarboxamide-N^1-oxide], the IC50 was 3.3 µM with swine coronary arteries, 1090 nM at A1 receptor and 6350 nM on A2 receptor.
For the compound `CCNC(=O)[C@H]1C[C@@H](n2cnc3c(NC(CC)Cc4sccc4Cl)ccnc32)[C@H](O)[C@@H]1O` (stereo partly shown) [Example 37], the IC50 with swine coronary arteries was 0.45 µM; at A1 receptor, 16.2 nM; at A2 receptor it was 110 nM.
On to `CCC(Cc1ccc(Cl)s1)Nc1ncnc2c1ncn2[C@@H]1O[C@H](CO)[C@@H](O)[C@H]1O` (stereo partly shown) [Example 21, N^6-[1-(5″-chlorothien-2″-yl)-2-butyl]adenosine], for which the values for the IC50 at A1 receptor and on A2 receptor were 0.09 nM and 14.8 nM, respectively.
Turning to `CCNC(=O)[C@H]1C[C@@H](n2cnc3c(N[C@H](C)Cc4ccc(Cl)s4)ncnc32)[C@@H]2OC(OCC)O[C@@H]21` (stereo partly drawn) [Example 43, (2S)-2a,3a-dihydroxy-4β-[N6-[2-(5-chloro-2-thienyl)-(1R)-1-methylethyl]amino-9-adenyl]cyclopentane-1β-N-ethylcarboxamide ethoxymethylene acetal], the IC50 was 7.83 µM with swine coronary arteries, 8430 nM on A1 receptor and greater than 10000 nM at A2 receptor.
With `CCNC(=O)C1CC(n2cnc3c(NCCc4nccs4)ncnc32)C(O)C1O` (racemic) [Example 25, (±)-N^6-[2-(2″-thiazolyl)ethyl]-carbocyclic adenosine-5′-N-ethyl carboxamide], the IC50 turned out to be 0.64 µM in the experiment on swine coronary arteries, 1260 nM on A1 receptor and 355 nM on A2 receptor.
Regarding `C[C@H](Cc1sccc1Cl)Nc1ncnc2c1ncn2[C@@H]1O[C@H](CO)[C@@H](O)[C@H]1O` [Example 32, N^6-[1-methyl-2-(3-chlorothien-2-yl)ethyl]adenosine], on A2 receptor, the IC50 came to 45 nM.
For `OC[C@H]1O[C@@H](n2cnc3c(NCCc4nc(-c5ccccc5)cs4)ncnc32)[C@H](O)[C@@H]1O` [Example 16, N^6-[2-(4′-phenyl-2′-thiazolyl)-ethyl]adenosine], the IC50 at A1 receptor is 1.7 nM; at A2 receptor, greater than 1000 nM.
For `CCNC(=O)C1CC(n2cnc3c(NCCc4ccsc4)ncnc32)C(O)C1O` (racemic) [Example 28, (±)-N^6-[1-(thiopen-3-yl)ethan-2-yl]carbocyclic adenosine-5′-N-ethyl carboxamide], in that order: 417 nM and greater than 1000 nM.
For the compound `OC[C@H]1O[C@@H](n2cnc3c(NCc4nc(-c5ccccc5)cs4)ncnc32)[C@H](O)[C@@H]1O` [Example 19], the pIC50 in the experiment on swine coronary arteries was 6.12. Moreover, the IC50 at A1 receptor turned out to be 36 nM; at A2 receptor, 1000 nM.
For the compound `CO[C@@H]1[C@H](O)[C@@H](CO)O[C@H]1n1cnc2c(N[C@H](C)Cc3sccc3Cl)ncnc21` [Example 47, N^6-[2-(3-chloro-2-thienyl)-(1R)-1-methylethyl]-2′-O-methyladenosine], the IC50 with swine coronary arteries was 5.7 µM; on A1 receptor it was 23 nM; at A2 receptor, 2820 nM.
Consider `CC(C)(Cc1cccs1)Nc1ncnc2c1ncn2[C@@H]1O[C@H](CO)[C@@H](O)[C@H]1O` [Example 17, N^6-[2-(1,1-dimethyl-2′-thiophenyl)ethyl]adenosine], for which the pIC50 in the experiment with swine coronary arteries was 4.73. For the same compound, the results for the IC50 at A1 receptor and at A2 receptor were 67.6 nM and 5250 nM, respectively.
With `CCNC(=O)[C@H]1C[C@@H](n2cnc3c(N[C@H](C)Cc4ccc(Cl)s4)ncnc32)[C@H](OC(=O)NC)[C@@H]1OC(=O)NC` [Example 45], the IC50 with swine coronary arteries was 4.1 µM; on A1 receptor it was 6350 nM; on A2 receptor it was greater than 10000 nM.
Turning to `Cc1nc(CCNc2ncnc3c2ncn3[C@@H]2O[C@H](CO)[C@@H](O)[C@H]2O)cs1` [Example 14, N^6-[2-(2′-methyl-4′-thiazolyl)-ethyl]adenosine], the IC50 is 79.4 nM on A1 receptor and greater than 1000 nM at A2 receptor.
For `CCNC(=O)[C@H]1C[C@@H](n2cnc3c(N[C@H](CC)Cc4ccc(Cl)s4)ccnc32)[C@H](O)[C@@H]1O` [Example 41], in that order: 14.2 nM and 158 nM.
Consider `CCNC(=O)[C@H]1C[C@@H](n2cnc3c(N[C@@H](C)Cc4ccc(Cl)s4)ccnc32)[C@H](O)[C@@H]1O` (relative stereo) [Example 36, [1S-[1a,2b,3b,4a(S*)]]-4-[7-[[2-(5-chloro-2-thienyl)-1-methylethyl]amino]-3H-imidazo[4,5-b]pyridin-3-yl]-N-ethyl-2,3-dihydroxycyclopentanecarboxamide], for which the pIC50 in the experiment with swine coronary arteries was 6.31. Further, the figures for the IC50 on A1 receptor and at A2 receptor were 8.8 nM and 43.4 nM, respectively.
For `OC[C@H]1O[C@@H](n2cnc3c(NCCSc4nc5ccccc5s4)ncnc32)[C@H](O)[C@@H]1O` [Example 10, N^6-[2-(2′-thiobenzothiazolyl)-ethyl]adenosine], the IC50 on A1 receptor was 3.8 nM; at A2 receptor it was greater than 1000 nM.
On to `CCNC(=O)[C@H]1O[C@@H](n2cnc3c(NC4CC=CCC4c4cccs4)ncnc32)[C@H](O)[C@@H]1O` (single isomer, unassigned) [Example 5, N6-[trans-2-(thiophen-2-yl)cyclohex-4-en-1-yl]adenosine-5′-N-ethylcarboxamide], for which the IC50 turned out to be 0.068 µM in the experiment on swine coronary arteries, 4.26 nM at A1 receptor and 91 nM on A2 receptor.
For `CCNC(=O)C1CC(n2cnc3c(NC(C)Cc4cccs4)ncnc32)C(O)C1O` (single isomer, unassigned; (-)) [Example 27], in that order: 0.043 µM, 5.01 nM and 29.5 nM.
For the compound `CCNC(=O)C1CC(n2cnc3c(N[C@H](CC)Cc4sccc4Cl)ncnc32)C(O)C1O` (single isomer, unassigned; (-)) [Example 34], the pIC50 with swine coronary arteries is 7.14. Also, the IC50 on A1 receptor was determined as 1.6 nM; on A2 receptor, 23 nM.
`CC(Cc1nccs1)Nc1ncnc2c1ncn2[C@@H]1O[C@H](CO)[C@@H](O)[C@H]1O` (stereo partly shown) [Example 20, N^6-[1-(thiazol-2-yl)prop-2-yl]-adenosine]: the figures for the IC50 at A1 receptor and at A2 receptor were 3.98 nM and 158 nM, respectively.
